# Measured values reported in patent EP1552850A2, “A combination of FBPase inhibitors and insulin sensitizers for the treatment of diabetes” (priority 1998, dated 2000).
# How the values were obtained:
# [1] = Hepatic and plasma drug metabolite levels after Compound A p.o. in rats; format: in vivo, SpragueDawley rats; conditions: after Compound A 250 mg/kg by oral gavage; 8 hours sampling
# Experimental: Compound A was administered by oral gavage to freely-feeding SpragueDawley rats (250-300g). The compound was prepared as a suspension in carboxymethylcellulose, and administered at a dose of 250 mg/kg. For the determination of liver metabolites, rats were serially sacrificed over the course of 24 hours after drug administration. Livers were freeze-clamped, homogenized in perchloric acid, neutralized, and then analyzed for Compound B by anion exchange HPLC.
# For the determination of plasma metabolites, rats were instrumented with carotid catheters prior to oral dosing. Blood samples were withdrawn via the catheters at appropriate time points over the course of 8 hours post drug administration. Plasma was prepared from the blood samples by centrifugation, and plasma protein precipitated by the addition of methanol to 60%. Compound A metabolites were quantitated by reverse phase HPLC in the deproteinated plasma samples. A C18 column (1.4 cm X 250 mm) was equilibrated with 10 mM sodium phosphate, pH 5.5 and eluted with a gradient from this buffer to acetonitrile. Detection was at 254 nm.
# Rat Hepatocytes = test: Inhibition of Glucose Production and Elevation of Fructose-1,6-Bisphosphate Levels in Rat Hepatocytes; format: cell-based
# Experimental: Hepatocytes were prepared from fed Sprague-Dawley rats (250-300 g) according to the procedure of Berry and Friend (Berry, M.N., Friend, D.S., 1969, J. Cell. Biol. 43, 506-520) as modified by Groen (Groen, A.K., Sips, H.J., Vervoom, R.C., Tager, J.M. , 1982, Eur. J. Biochem. 122, 87-93). Hepatocytes (75 mg wet weight/ml) were incubated in 1 ml Krebs-bicarbonate buffer containing 10 mM Lactate, 1 mM pyruvate, 1 mg/ml BSA, and test compound concentrations from 0 to 500 µM. Incubations were carried out in a 95% oxygen, 5% carbon dioxide atmosphere in closed, 50-ml Falcon tubes submerged in a rapidly shaking water bath (37°C). After 1 hour, an aliquot (0.25 ml) was removed, transferred to an Eppendorf tube and centrifuged. 50 µl of supernatant was then assayed for glucose content using a Sigma Glucose Oxidase kit as per the manufacturer's instructions.
# Rat hepatocytes were isolated and incubated as described in Example C. Cell extracts, were analyzed for glucose content as described in Example C, and also for fructose 1,6-bisphosphate. Fructose 1,6-bisphosphate was assayed spectrophotometrically by coupling its enzymatic conversion to glycerol 3-phosphate to the oxidation of NADH, which was monitored at 340 nm. […] After a 30 minute preincubation at 37°C, 1 unit/mi of aldolase was added and the change in absorbance measured until a stable value was obtained. […]
# [2] = Oral Bioavailability Determination (urinary excretion method); format: in vivo, Sprague Dawley rats; conditions: rat, oral 10-40 mg/kg vs intravenous parent, 24 hours urine
# Experimental: The oral bioavailability of prodrugs and parent compounds was determined by the urinary excretion method in the rat. Prodrugs were dissolved in 10% ethanol/90% polyethylene glycol (mw 400) and administered by oral gavage at doses of 10 to 40 mg/kg parent compound equivalents to 6-hour fasted, Sprague Dawley rats (220-240 g). Parent compounds were typically dissolved in deionized water, neutralized with sodium hydroxide, and then administered orally at 10-40 mg/kg or intravenously at ~10 mg/kg. The rats were subsequently placed in metabolic cages and urine was collected for 24 hours. The quantity of parent compound excreted into urine was determined by HPLC analysis as described in Example F. Analysis was performed as described in Example F. For prodrugs, the percentage oral bioavailability was estimated by comparison of the recovery in urine of the parent compound generated from the prodrug administered orally, to that recovered in urine following intravenous administration of the corresponding parent compound. For parent compounds, the percentage oral bioavailability was estimated by comparison of the recovery in urine of the parent compound when administered orally to that recovered when administered intravenously.
# ZDF rat [3] = test: Combination treatment with Troglitazone and Compound G or Compound J in the ZDF rat - blood glucose; format: in vivo, Zucker Diabetic Fatty (ZDF) rat; conditions: for Blood Glucose, Day 0: baseline
# Experimental: At 11 weeks of age, animals with blood glucose >500 mg/dl were selected and divided into 4 treatment groups (n=8/group). […] Blood glucose levels were measured in tail vein samples by means of a HemoCue glucose analyzer (HemoCue Inc., Mission Viejo, CA). Values are expressed as the mean plus or minus the standard error of the mean. Differences between groups were evaluated by analysis of variance with the Tukey-Kramer post hoc test.
# ZDF rat [4] = conditions: in vivo
# Experimental: At 11 weeks of age, animals with blood glucose >500 mg/dl were selected and divided into 4 treatment groups (n=8/group). […] Values are expressed as the mean plus or minus the standard error of the mean. Differences between groups were evaluated by analysis of variance with the Tukey-Kramer post hoc test.
# Plasma was prepared by centrifugation and triglyceride levels then measured by means of a standard assay kit according to the instructions of the manufacturer (Sigma Chemical Company). Differences between groups were evaluated by analysis of variance with the Tukey-Kramer post hoc test. Results are considered significant with p<0.05.
# type 2 diabetics = conditions: clinic; cited from earlier work
# db/db Mouse = test: Combination treatment with Troglitazone and Compound G in the db/db mouse - blood glucose; conditions: db/db mice, baseline
# Experimental: Male db/db mice were purchased at 8 weeks of age from Jackson Labs (Bar Harbor, Maine). […] At 10 weeks of age, animals with blood glucose >400 mg/dl and <900 mg/dl were selected and divided into 4 treatment groups (n=5-6/group). […] Treatment was for 18 days. […] Blood glucose levels were measured in tail vein samples by means of a HemoCue glucose analyzer (HemoCue Inc., Mission Viejo, CA). Values are expressed as the mean plus or minus the standard error of the mean. Differences between groups were evaluated by analysis of variance with the Tukey-Kramer post hoc test. Results are considered significant with p<0.05.
# [5] = Troglitazone-Compound J study, Troglitazone 0.2%, Compound J 0.4%
compound,measurement,setting,value
NC(=O)c1ncn([C@@H]2O[C@H](CO)[C@@H](O)[C@H]2O)c1Br [5-bromo-1-βD-ribofuranosyl-imidazole-carboxamide],detection in plasma,[1],detectable
CCc1cc(F)c(N)c2nc(-c3ccc(P(=O)(O)O)o3)n(CC(C)C)c12 [Compound E],"intracellular fructose 1,6-bisphosphate",Rat Hepatocytes,dose-dependent elevation
"CSc1nc(-c2ccc(P(=O)(O)O)o2)c(CC(C)C)s1 [Compound H, 2-Methylthio-5-isobutyl-4-[2-(5-phosphono)furanyl]thiazole]","Oral bioavailability, %",[2],4%
"CCOC(=O)[C@H](C)NP(=O)(N[C@@H](C)C(=O)OCC)c1ccc(-c2nc(N)sc2CC(C)C)o1 [Compound J, 2-Amino-5-isobutyl-4-{2-[5-(N,N'-bis((S)-1-ethoxycarbonyl)ethyl)phosphonamido]furanyl}thiazole]","Blood Glucose, Day 0",ZDF rat [3]; [5],674 ± 20 mg/dL
same,"Blood Glucose, Day 21",ZDF rat [3]; [5],452 ± 40 mg/dL
same,"blood glucose lowering, pilot studies","ZDF rat [3]; ZDF rat, food admixture dose finding",trend (not significant) towards more pronounced blood glucose lowering at 0.4% than at 0.2%
same,elevation of plasma triglycerides,ZDF rat [4],~2 fold
Cc1c(C)c2c(c(C)c1O)CCC(C)(COc1ccc(CC3SC(=O)NC3=O)cc1)O2 (stereo not shown) [Troglitazone],"Blood Glucose, Day 0","ZDF rat [3]; Troglitazone-Compound G study, 0.2% food admixtures",655 ± 33 mg/dL
same,"hepatotoxicity, elevation of liver enzymes",type 2 diabetics,1 % of patients
same,"Blood Glucose, Day 0",db/db Mouse,710 ± 44 mg/dL
